{"source": "ChEMBL document CHEMBL1629634", "about": "“Postantibiotic effect of tigecycline against 14 gram-positive organisms” (Antimicrob Agents Chemother, 2009)", "type_in_all_cases": "functional", "key": {"Enterococcus faecalis [1]": {"test_system": "Enterococcus faecalis", "assay": "Antibacterial activity against vancomycin-sensitive Enterococcus faecalis assessed as post-antibiotic sub-MIC effect at 0.2 times MIC concentration pretreated with 10 times MIC concentration for 1 hr followed by 1:1000 dilution by viable plate count method"}, "Enterobacter cloacae": {"test_system": "Enterobacter cloacae", "assay": "Antibacterial activity against Enterobacter cloacae assessed as post-antibiotic sub-MIC effect at 0.2 times MIC concentration pretreated with 2 times MIC concentration for 1 hr followed by 1:1000 dilution by viable plate count method"}, "Acinetobacter baumannii [2]": {"test_system": "Acinetobacter baumannii", "assay": "Antibacterial activity against multidrug-resistant Acinetobacter baumannii producing OXA-24 and OXA-51 beta-lactamases assessed as sub-MIC effect at 0.3 times MIC concentration incubated for 1 hr by viable plate count method"}, "Klebsiella pneumoniae": {"test_system": "Klebsiella pneumoniae", "assay": "Antibacterial activity against Klebsiella pneumoniae assessed as post-antibiotic sub-MIC effect at 0.3 times MIC concentration pretreated with 10 times MIC concentration for 1 hr followed by 1:1000 dilution by viable plate count method"}, "Acinetobacter baumannii [3]": {"test_system": "Acinetobacter baumannii", "assay": "Antibacterial activity against multidrug-resistant Acinetobacter baumannii producing OXA-24 and OXA-51 beta-lactamases assessed as post-antibiotic sub-MIC effect at 0.3 times MIC concentration pretreated with 10 times MIC concentration for 1 hr followed by 1:1000 dilution by viable plate count method"}, "Haemophilus influenzae": {"test_system": "Haemophilus influenzae", "assay": "Antibacterial activity against beta-lactamase deficient and ampicillin-resistant Haemophilus influenzae assessed as sub-MIC effect at 0.4 times MIC concentration incubated for 1 hr by viable plate count method"}, "Staphylococcus aureus": {"test_system": "Staphylococcus aureus", "assay": "Antibacterial activity against vancomycin-sensitive methicillin-resistant Staphylococcus aureus assessed as post-antibiotic sub-MIC effect at 0.4 times MIC concentration pretreated with 10 times MIC concentration for 1 hr followed by 1:1000 dilution by viable plate count method"}, "Enterococcus faecalis [4]": {"test_system": "Enterococcus faecalis", "assay": "Antibacterial activity against vancomycin-sensitive Enterococcus faecalis assessed as sub-MIC effect at 0.2 times MIC concentration incubated for 1 hr by viable plate count method"}, "Streptococcus pneumoniae": {"test_system": "Streptococcus pneumoniae", "assay": "Antibacterial activity against penicillin-intermediate Streptococcus pneumoniae assessed as sub-MIC effect at 0.2 times MIC concentration incubated for 1 hr by viable plate count method"}, "Escherichia coli [5]": {"test_system": "Escherichia coli", "assay": "Antibacterial activity against Escherichia coli assessed as post antibiotic effect at 10 times MIC concentration incubated for 1 hr measured after 1:1000 dilution by viable plate count method"}, "Escherichia coli [6]": {"test_system": "Escherichia coli", "assay": "Antibacterial activity against Escherichia coli assessed as post antibiotic effect"}}}
{"smiles": "CN(C)c1cc(NC(=O)CNC(C)(C)C)c(O)c2c1C[C@H]1C[C@H]3[C@H](N(C)C)C(O)=C(C(N)=O)C(=O)[C@@]3(O)C(O)=C1C2=O", "note": "[TIGECYCLINE]", "values": [{"measurement": "PAE", "setting": "Enterococcus faecalis [1]", "result": 5.3, "unit": "h"}, {"measurement": "PAE", "setting": "Enterobacter cloacae", "result": 2.9, "unit": "h"}, {"measurement": "PAE", "setting": "Acinetobacter baumannii [2]", "result": 0.7, "unit": "h"}, {"measurement": "PAE", "setting": "Klebsiella pneumoniae", "result": 2, "unit": "h"}, {"measurement": "PAE", "setting": "Acinetobacter baumannii [3]", "result": 2.2, "unit": "h"}, {"measurement": "PAE", "setting": "Haemophilus influenzae", "result": 0.8, "unit": "h"}, {"measurement": "PAE", "setting": "Staphylococcus aureus", "result": 6.7, "unit": "h"}, {"measurement": "PAE", "setting": "Enterococcus faecalis [4]", "result": 0, "unit": "h"}, {"measurement": "PAE", "setting": "Streptococcus pneumoniae", "result": 1.9, "unit": "h"}, {"measurement": "PAE", "setting": "Escherichia coli [5]", "result": 2, "unit": "h"}, {"measurement": "PAE", "setting": "Escherichia coli [6]", "result": 2, "unit": "h"}]}
